Measured values from the supplement of paper PMC10627819.

How the values were obtained:
[1] = system: S. aureus Newman; test: fitness (endpoint OD595 vs no drug) (fraction); higher = more growth; conditions: main component drawn
How it was run: (§1)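 Cultures at OD595 0.01 were dispensed into 384-well plates in TSB, LB Lennox or CY and incubated at 37 °C. Every 30 min for 14 h, OD595 was read and corrected by the first reading. Fitness is the optical density at entry into stationary phase relative to the robust mean of no-drug control wells, capped at 1.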

[2] = system: S. aureus DSM 20231; test: as above
How it was run: as §1

[3] = system: B. subtilis 168; test: Bliss interaction score (quartile over a dose matrix) (fitness difference); higher = more antagonism (negative = synergy)
How it was run: (§2)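 Growth was read as OD595 when cultures entered stationary phase, and each value was divided by the plate's robust no-drug mean and capped at 1. This normalised ratio is the fitness value, and fitness for each single drug came from the combination data. The Bliss score subtracts the expected fitness, taken as the product, from the observed fitness and is given as quartiles across technical, biological and donor/recipient replicates.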

[4] = system: S. pneumoniae D39V; test: as above
How it was run: as §2

[5] = system: S. aureus Newman; test: as above
How it was run: as §2

[6] = system: S. aureus DSM 20231; test: as above
How it was run: as §2

[7] = system: B. subtilis 168; test: fitness (endpoint OD595 vs no drug) (fraction); higher = more growth
How it was run: as §1
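Throughout, for Bliss interaction score (quartile over a dose matrix): first quartile when negative (synergy) and third quartile when positive (antagonism).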

Cc1ncc([N+](=O)[O-])n1CCO [Metronidazole] + CCCCCCCCCC(=O)N[C@@H]1[C@H]([C@@H]([C@H](O[C@H]1OC2=C3C=C4C=C2OC5=C(C=C(C=C5)[C@H]([C@H]6C(=O)N[C@@H](C7=C(C(=CC(=C7)O)OC8[C@H]([C@H]([C@@H]([C@H](O8)CO)O)O)O)C9=C(C=CC(=C9)[C@H](C(=O)N6)NC(=O)[C@@H]4NC(=O)[C@@H]1C2=CC(=CC(=C2)OC2=C(C=CC(=C2)[C@H](C(=O)N[C@H](CC2=CC(=C(O3)C=C2)Cl)C(=O)N1)N)O)O)O)C(=O)O)O[C@H]1[C@@H]([C@H]([C@@H]([C@H](O1)CO)O)O)NC(=O)C)Cl)CO)O)O [Teicoplanin]
fitness, [1]
Conditions | first compound 0.625 µg/mL | first compound 1.25 µg/mL | first compound 2.5 µg/mL
partner 0.1562 µg/mL | 0.976 | 0.979 | –
partner 0.3125 µg/mL | 0.988 | 0.973 | 0.933
partner 0.625 µg/mL | 0.927 | 0.925 | 0.752

fitness
Conditions | first compound 0.625 µg/mL | first compound 0.781 µg/mL | first compound 1.25 µg/mL | first compound 1.562 µg/mL | first compound 2.5 µg/mL | first compound 3.124 µg/mL
[1], partner 0.1562 µg/mL, one replicate | – | ≥ 1 | – | ≥ 1 | – | ≥ 1
[1], partner 0.3125 µg/mL, one replicate | – | ≥ 1 | – | 0.961 | – | 0.989
[1], partner 0.62 µg/mL, one replicate | 0.82 | – | 0.795 | – | 0.81 | –
[1], partner 0.625 µg/mL, one replicate | – | 0.845 | – | 0.805 | – | 0.836
[1], partner 1.24 µg/mL, one replicate | 0.745 | – | 0.774 | – | 0.76 | –
[1], partner 2.48 µg/mL, one replicate | 0.492 | – | 0.505 | – | 0.486 | –
[2], partner 0.1562 µg/mL, main component drawn | 0.967 | – | ≥ 1 | – | ≥ 1 | –
[2], partner 0.3125 µg/mL, main component drawn | ≥ 1 | – | ≥ 1 | – | ≥ 1 | –
[2], partner 0.625 µg/mL, main component drawn | ≥ 1 | – | ≥ 1 | – | ≥ 1 | –

main component drawn
Conditions | Bliss interaction score
[3] | 0.0689
[4] | 0.126
[5] | 0.0581
[6] | 0.0308

COc1ccc(C[C@H](N)C(=O)N[C@H]2[C@@H](O)[C@H](n3cnc4c(N(C)C)ncnc43)O[C@@H]2CO)cc1 [Puromycin] + CCCCCCCCCC(=O)N[C@@H]1[C@H]([C@@H]([C@H](O[C@H]1OC2=C3C=C4C=C2OC5=C(C=C(C=C5)[C@H]([C@H]6C(=O)N[C@@H](C7=C(C(=CC(=C7)O)OC8[C@H]([C@H]([C@@H]([C@H](O8)CO)O)O)O)C9=C(C=CC(=C9)[C@H](C(=O)N6)NC(=O)[C@@H]4NC(=O)[C@@H]1C2=CC(=CC(=C2)OC2=C(C=CC(=C2)[C@H](C(=O)N[C@H](CC2=CC(=C(O3)C=C2)Cl)C(=O)N1)N)O)O)O)C(=O)O)O[C@H]1[C@@H]([C@H]([C@@H]([C@H](O1)CO)O)O)NC(=O)C)Cl)CO)O)O [Teicoplanin]
fitness, [1]
Conditions | first compound 0.39 µg/mL | first compound 0.78 µg/mL | first compound 1.56 µg/mL
partner 0.1562 µg/mL | ≥ 1 | ≥ 1 | ≥ 1
partner 0.3125 µg/mL | ≥ 1 | ≥ 1 | ≥ 1
partner 0.625 µg/mL | ≥ 1 | 0.888 | 0.906

fitness
Conditions | first compound 0.39 µg/mL | first compound 0.78 µg/mL | first compound 1.56 µg/mL
[1], partner 0.62 µg/mL, one replicate | 0.761 | 0.815 | 0.79
[1], partner 1.24 µg/mL, one replicate | 0.754 | 0.755 | 0.76
[1], partner 2.48 µg/mL, one replicate | 0.457 | 0.454 | 0.403
[2], partner 0.1562 µg/mL, main component drawn | 0.895 | 0.997 | 0.982
[2], partner 0.3125 µg/mL, main component drawn | ≥ 1 | ≥ 1 | 1
[2], partner 0.625 µg/mL, main component drawn | ≥ 1 | ≥ 1 | ≥ 1

fitness, [2], one replicate, main component drawn
Conditions | partner 0.1562 µg/mL | partner 0.3125 µg/mL | partner 0.625 µg/mL
first compound 3.12 µg/mL | 0.94 | ≥ 1 | ≥ 1
first compound 6.24 µg/mL | 0.664 | 0.579 | 0.504

main component drawn
Conditions | Bliss interaction score
[3] | 0.0835
[4] | 0.083
[5] | 0.0617
[6] | -0.0344

COc1ccc(C[C@H](N)C(=O)N[C@H]2[C@@H](O)[C@H](n3cnc4c(N(C)C)ncnc43)O[C@@H]2CO)cc1 [Puromycin] + COc1cc(Cc2cnc(N)nc2N)cc(OC)c1OC [Trimethoprim]
fitness, one replicate
Conditions | first compound 0.39 µg/mL | first compound 0.78 µg/mL | first compound 1.56 µg/mL | first compound 3.12 µg/mL | first compound 6.24 µg/mL
[2], partner 0.125 µg/mL | 0.804 | 0.921 | – | 0.908 | 0.596
[2], partner 0.25 µg/mL | – | – | – | 0.812 | 0.631
[2], partner 0.5 µg/mL | – | – | – | 0.48 | 0.613
[7], partner 0.1 µg/mL | 0.818 | 0.875 | 0.962 | – | –
[7], partner 0.125 µg/mL | 0.756 | 0.748 | 0.77 | – | –
[7], partner 0.2 µg/mL | 0.814 | 0.85 | 0.831 | – | –
[7], partner 0.4 µg/mL | 0.562 | 0.581 | 0.575 | – | –
[7], partner 1 µg/mL | 0.332 | 0.342 | 0.365 | – | –
[7], partner 2 µg/mL | 0.326 | 0.29 | 0.235 | – | –

fitness
Conditions | first compound 0.39 µg/mL | first compound 0.78 µg/mL | first compound 1.56 µg/mL
[2], partner 0.125 µg/mL | – | – | 0.876
[2], partner 0.25 µg/mL | 0.605 | 0.639 | 0.682
[2], partner 0.5 µg/mL | 0.164 | – | 0.222
[2], partner 1 µg/mL | 0.0431 | 0.0497 | 0.0562
[7], partner 0.25 µg/mL | 0.695 | 0.738 | 0.71
[7], partner 0.5 µg/mL | 0.492 | 0.481 | 0.514

Conditions | Bliss interaction score
[3] | 0.0908
[4] | -0.203
[5] | 0.0927
[6] | 0.113
